Like-named read-outs stand apart in the source and are kept apart here.
What was measured:
[1] = test system: P. falciparum female gametocytes; assay: P. falciparum Dual Gamete Formation Assay (PfDGFA), female readout (Pfs25-positive female gametes); format: cell-based, Plasmodium falciparum NF54; settings: for inhibition at 2 µM: 24h preincubation with gametocytes
Experimental: (§1) P. falciparum NF54 (originally isolated from an imported malaria case in the Netherlands in the 1980s; BEI Resources, cat. No. MRA-1000) strain asexual parasites were maintained between 0.3–5% parasitaemia by regular passage in complete culture medium (RPMI supplemented with 25 mM HEPES, 50 μg ml^−1 hypoxanthine, 4.8 g l^−1 NaHCO3, 2mM L-glutamine, 5% pooled type AB serum, 0.5% Albumax II (Gibco)) at 4% haematocrit in washed whole blood (National Blood and Transfusion Service or Centro de Transfusiones de la Comunidad de Madrid CTCM) under a 1% O2/3% CO2/96% N2 environment. Gametocytes were induced by seeding culture flasks at 2% parasitaemia/4% haematocrit and subjecting them to daily medium changes for 14 days whilst maintaining a temperature of 37°C at all times. On Day 14, the maturity of gametocytes was assessed by quantifying male gametogenesis (exflagellation). A 20 μl sample of gametocyte culture was mixed with equal volume of ookinete medium (complete culture medium supplemented with 0.1 μM xanthurenic acid) at room temperature and transferred to a haemocytometer. After 20 min at room temperature, exflagellation was accurately quantified as described in Delves et al. 2016 [17].
(§2) The Pf DGFA was performed as described in Delves et al. 2016 [17]. […] Plates were then incubated for 24 h at 37°C in a humidified box under a 1% O2/3% CO2/96% N2 gas mix. Gametogenesis was triggered by addition of 10 μl per well of ookinete medium + 0.27 μg ml^-1 Cy3-labelled anti-Pfs25 antibody. Plates were incubated on a metal block at 4°C for 4 min to ensure even cooling, then 28°C for a further 4 min. Exflagellation was recorded by capturing 10 frames over 1 s under brightfield illumination using a x4 objective with a 1.5x zoom (effectively x6) attached to an automated Nikon Ti fluorescence microscope. After recording exflagellation, plates were incubated for a further 24 h in the dark at 28°C to ensure maximal expression of Pfs25 by female gametes. The plates were then returned to the microscope and female gametes imaged at x6 using fluorescence microscopy.
(§3) Exflagellation centres and female gametes were quantified using custom image analysis pipelines developed within ICY Bioimage Analysis (https://icy.bioimageanalysis.org/).

[2] = test system: P. falciparum male gametocytes; assay: P. falciparum Dual Gamete Formation Assay (PfDGFA), male readout (exflagellation); format: cell-based, Plasmodium falciparum NF54; settings: for Activity: hit = >50% inhibition in male or female readout in at least 3 replicates, 0 = no class assigned; for inhibition at 2 µM: 24h preincubation with gametocytes
Experimental: as §1, §2, §3

[3] = 2µM, 24h preincubation with gametocytes prior to induction of gametogenesis, average of replicates
[4] = 2µM, 24h preincubation with gametocytes prior to induction of gametogenesis, replicate R1
[5] = 2µM, 24h preincubation with gametocytes prior to induction of gametogenesis, replicate R3
[6] = 2µM, 24h preincubation with gametocytes prior to induction of gametogenesis, replicate R4
[7] = 2µM, 24h preincubation, number of replicates with >50% inhibition in the female readout
[8] = 2µM, 24h preincubation, number of replicates with >50% inhibition in the male readout
[9] = 2µM, 24h preincubation, hits selected on >50% inhibition in the female readout across replicates
[10] = 2µM, 24h preincubation, hits selected on >50% inhibition in the male readout across replicates
[11] = PfDGFA at 2µM, 24h preincubation
[12] = PfDGFA at 2µM, 24h preincubation with gametocytes prior to induction of gametogenesis, replicate R1
[13] = PfDGFA at 2µM, 24h preincubation with gametocytes prior to induction of gametogenesis, replicate R3
[14] = PfDGFA at 2µM, 24h preincubation with gametocytes prior to induction of gametogenesis, replicate R4
[15] = PfDGFA at 2µM, 24h preincubation, average of replicates

SMILES | Average inhibition female (%) [1, 3] [%] | % inhibition female (individual replicates) R1 [1, 4] [%] | % inhibition female (individual replicates) R3 [1, 5] [%] | % inhibition female (individual replicates) R4 [1, 6] [%] | Average inhibition male (%) [2, 3] [%] | % inhibition male (individual replicates) R1 [2, 4] [%] | % inhibition male (individual replicates) R4 [2, 6] [%] | HitlevelF [1, 9] | % inhibition male (individual replicates) R3 [2, 5] [%] | HitlevelM [2, 10] | Activity [2, 11] | further results
Cc1ccc(-n2cc(CNCC3CCN(CCO)CC3)c(-c3ccc(F)cc3)n2)cc1 [TCMDC-124689] | 19.9 | 20.1 | 19.4 | 10.0 | 53.6 | 49.0 | 58.1 |  |  |  |  | HitlevelF [1, 7]: 0; HitlevelM [2, 8]: 2
O=C(c1ccc([N+](=O)[O-])o1)N1CCN(c2nc3c(F)cc(F)cc3s2)CC1 [TCMDC-125149] | 6.5 | 10.3 | -4.5 | 0.07 | 6.8 | 35.5 | -11.8 | 0 | -37.1 | 0 | 0 | 
CNCCCNCc1ccc(-c2ccc(F)c(Cl)c2)o1.Cl [TCMDC-125237] | 13.7 | 17.7 | 9.1 | 15.1 | 15.1 | 6.0 | 19.5 | 0 |  | 0 | 0 | 
COCCn1c(Sc2ncnc3sccc23)nc2ccccc21 [TCMDC-125258] |  |  |  |  |  |  |  |  |  |  |  | Selectivity ratio F ([1]; HepG2 Tox50 versus female IC50): 94.48; inhibition at 2 µM ([1]; Plasmodium falciparum, PfDGFA at 2µM, average of replicates, read-out: Average inhibition female (%)): 60.4%; inhibition at 2 µM ([1]; Plasmodium falciparum, PfDGFA at 2µM, replicate R1, read-out: % inhibition female (individual replicates) R1): 48.4%; inhibition at 2 µM ([1]; Plasmodium falciparum, PfDGFA at 2µM, replicate R2, read-out: % inhibition female (individual replicates) R2): 75.4%; inhibition at 2 µM ([1]; Plasmodium falciparum, PfDGFA at 2µM, replicate R3, read-out: % inhibition female (individual replicates) R3): 37.4%; inhibition at 2 µM ([1]; Plasmodium falciparum, PfDGFA at 2µM, replicate R4, read-out: % inhibition female (individual replicates) R4): 80.3%; IC50 ([1]; Plasmodium falciparum, PfDGFA, 24 h incubation with gametocytes before induction, female gamete readout, read-out: Female IC50): 1.06 µM; HitlevelF ([1]; number of replicates with >50% inhibition in the female readout, 2µM): 2; Selectivity Ratio M ([2]; HepG2 Tox50 versus male IC50): 81.39; inhibition at 2 µM ([2]; Plasmodium falciparum, PfDGFA at 2µM, average of replicates, read-out: Average inhibition male (%)): 69.9%; inhibition at 2 µM ([2]; Plasmodium falciparum, PfDGFA at 2µM, replicate R1, read-out: % inhibition male (individual replicates) R1): 86.4%; inhibition at 2 µM ([2]; Plasmodium falciparum, PfDGFA at 2µM, replicate R2, read-out: % inhibition male (individual replicates) R2): 73.7%; inhibition at 2 µM ([2]; Plasmodium falciparum, PfDGFA at 2µM, replicate R3, read-out: % inhibition male (individual replicates) R3): 49.8%; inhibition at 2 µM ([2]; Plasmodium falciparum, PfDGFA at 2µM, replicate R4, read-out: % inhibition male (individual replicates) R4): 69.6%; IC50 ([2]; Plasmodium falciparum, PfDGFA, 24 h incubation with gametocytes before induction, exflagellation readout, read-out: Male IC50): 1.23 µM; HitlevelM ([2]; number of replicates with >50% inhibition in the male readout, 2µM): 3
NC(=O)c1ccsc1NC(=O)CNC(c1ccccc1)c1ccc(Cl)cc1 (stereo not drawn) [TCMDC-125330] |  |  |  |  |  |  |  |  |  |  |  | % inhibition female (individual replicates) R1 [1, 12]: 0.32%; % inhibition female (individual replicates) R3 [1, 13]: -9.3%; % inhibition female (individual replicates) R4 [1, 14]: 6.9%; Average inhibition female (%) [1, 15]: 1.5%; % inhibition male (individual replicates) R1 [2, 12]: -5.4%; % inhibition male (individual replicates) R3 [2, 13]: -28.2%; % inhibition male (individual replicates) R4 [2, 14]: -28.5%; Average inhibition male (%) [2, 15]: -19.7%
O=C(Nc1nc(-c2ccccn2)cs1)c1ccc(S(=O)(=O)N2CCc3ccccc32)cc1 [TCMDC-125432] | 23.2 | 27.4 | 14.7 | 30.9 | -21.9 | -19.8 | -25.8 |  | -49.6 |  |  | HitlevelF [1, 7]: 0; HitlevelM [2, 8]: 0
COc1ccc(-c2csc3nc(C)nc(Cl)c23)cc1OC [TCMDC-125523] | 3.7 | 4.5 | -29.0 | 16.0 | -3.5 | -8.3 | 6.2 | 0 | -15.7 | 0 | 0 | 

Reference: PMC10584170, “Machine learning-based phenotypic imaging to characterise the targetable biology of Plasmodium falciparum male gametocytes for the development of transmission-blocking antimalarials” (PLOS Pathogens, 2023)
